Data on one compound can be found in US5202434A, “8a-aza-8a-homoerythromycin lactams” (Merck & Co., Inc., priority 1992, dated 1993).

Test in all cases: MIC, liquid turbidimetric microtiter broth method
Common to all, as to type: cell-based

In one experiment the test system is Escherichia coli MB 4926. The conditions noted are these: MB4926. The text has this: (§1) The compounds of formula (II) will show antibacterial activity against a range of aerobic Gram positive and negative bacteria as shown in the following Table. The assay employs a liquid turbidimetric microtiter method for determination of the minimum inhibitory concentration (MIC) in broth media. […] The MIC is generally not an absolute value but rather a concentration range that falls within a two-fold dilution limit. Generally, twelve two-fold dilutions of the test compound are employed with the initial concentration set at 128 mcg/ml.

Experiment [1] deals with Steptococcus pneumoniae CL 2883.
Description: as §1

In experiment [2] the test system is Streptococcus viridans CL 2943. The conditions noted are these: CL2943.
Description: as §1

As a reminder, the MIC is the least concentration at which growth counts as inhibited. Low values mean a more susceptible organism, high ones a less susceptible organism.

The structures appear in SMILES notation. Converted amounts (≈) assume the structure as drawn. A value given as a limit tells only on which side of the number the result lay.

In the case of `CC[C@H]1OC(=O)[C@H](C)[C@@H](O[C@H]2C[C@@](C)(OC)[C@@H](O)[C@H](C)O2)[C@H](C)[C@@H](O[C@@H]2O[C@H](C)C[C@H](N(C)C)[C@H]2O)[C@](C)(O)C[C@@H](C)NC(=O)[C@H](C)[C@@H](O)[C@]1(C)O` [8aaza-8a-homoerythromycin A, 8a-Aza-8a-homoerythromycin A], the MIC was 4 µg/mL (≈ 5.34 µM) in the experiment on Escherichia coli MB 4926, at most 0.06 µg/mL in experiment [1] and 4 µg/mL (≈ 5.34 µM) in experiment [2].
